{"source": "the C3SDB collision cross section collection", "key": {"[1]": {"conditions": "instrument: TW, calibrated with phosphatidylcholines (ESI+) and phosphatidylethanolamines (ESI-)"}, "[2]": {"conditions": "[M+Na]+; instrument: DT; stepped-field"}, "[3]": {"conditions": "instrument: TW, calibrated with phosphatidylcholines (ESI+) and phosphatidylethanolamines (ESI-)", "remark": "listed apart in the source"}, "[4]": {"conditions": "instrument: DT, single field, calibrated with Agilent tune mix (Agilent)"}}, "data": [{"smiles": "CCCCCC/C=C\\CCCCCCCC(=O)OCC(COP(=O)([O-])OCC(O)COC(=O)C(N)CCCC[NH3+])OC(=O)CCCCCCC/C=C\\CCCCCC", "note": "(stereo unspecified) [LysPG(32:2)]", "values": [{"measurement": "collision cross section (N2)", "setting": "[1]; [M+H]+", "value": 290.8, "unit": "Å²"}]}, {"smiles": "CCCCCCCCCCCCCCC(=O)OCC(COP(=O)([O-])OCC(O)COC(=O)C(N)CCCC[NH3+])OC(=O)CCCCCCCCCCCCCC", "note": "(stereo unspecified) [LysPG(30:0)]", "values": [{"measurement": "collision cross section (N2)", "setting": "[1]; [M+H]+", "value": 290.4, "unit": "Å²"}]}, {"smiles": "CCCCCCCCCCCCCCC=CCC(=O)O[C@H](COC(=O)CC=CCCCCCCCCCCCCCCC)CO[C@@H]1O[C@H](CO[C@H]2O[C@H](CO)[C@H](O)C(O)C2O)[C@H](O)C(O)C1O", "note": "(stereo partly specified) [DGDG(35:2)]", "values": [{"measurement": "collision cross section (N2)", "setting": "[1]; M+NH4]+", "value": 315, "unit": "Å²"}]}, {"smiles": "CCCCC/C=C\\C/C=C\\CCCCCCCC(=O)O[C@H](CO/C=C\\CCCCCCCCCCCCCC)COP(=O)(O)OC[C@@H](O)CO", "note": "[PG(p34:2)]", "values": [{"measurement": "collision cross section (N2)", "setting": "[1]; [M-H]-", "value": 266.6, "unit": "Å²"}]}, {"smiles": "CCCCCC/C=C\\CCCCCCCC(=O)O[C@H](COC(=O)CCCCCCCCCCCCCC)COP(=O)(O)OC[C@@H](O)CO", "note": "[PG(31:1)]", "values": [{"measurement": "collision cross section (N2)", "setting": "[1]; [M-H]-", "value": 260.2, "unit": "Å²"}]}, {"smiles": "CCCCCCCCCCCCCCCC(=O)OCC(COP(=O)([O-])OCC(O)COC(=O)C(N)CCCC[NH3+])OC(=O)CCCCCCCCCCCCCCC", "note": "(stereo unspecified) [LysPG(16:0/16:0)]", "values": [{"measurement": "collision cross section (N2)", "setting": "[1]; [M+H]+", "value": 297, "unit": "Å²"}, {"measurement": "collision cross section (N2)", "setting": "[1]; [M-H]-", "value": 291.5, "unit": "Å²"}]}, {"smiles": "CCCCCCCCCCCCCCCCCCC(=O)OC(COC(=O)CCCCCCCCCCCCCC)COP(=O)([O-])OCC(O)COC(=O)C(N)CCCC[NH3+]", "note": "(stereo unspecified) [LysPG(34:0)]", "values": [{"measurement": "collision cross section (N2)", "setting": "[1]; [M+H]+", "value": 302.5, "unit": "Å²"}]}, {"smiles": "CCCCCCCCCCCCCCCC(=O)OC[C@H](COP(=O)(O)O[C@H]1C(O)C(O)C(O)[C@@H](O)C1O)OC(=O)CCCCCCCCCCCCCCC", "note": "(stereo partly specified) [PI(16:0/16:0)]", "values": [{"measurement": "collision cross section (N2)", "setting": "[1]; [M+Na]+", "value": 289.5, "unit": "Å²"}, {"measurement": "collision cross section (N2)", "setting": "[1]; [M-H]-", "value": 280.9, "unit": "Å²"}]}, {"smiles": "CCCCCCCCCCCCCCC(=O)OCC(COP(=O)([O-])OCC(O)COC(=O)C(N)CCCC[NH3+])OC(=O)CCCCCCCCCCCC", "note": "(stereo unspecified) [LysPG(28:0)]", "values": [{"measurement": "collision cross section (N2)", "setting": "[1]; [M+H]+", "value": 284.7, "unit": "Å²"}]}, {"smiles": "CCCCCCCCCCCCCCCCC(=O)O[C@H](COC(=O)CCCCCCCCCCCCCC)COP(=O)(O)OC[C@@H](O)CO", "note": "[PG(16:0/16:0)]", "values": [{"measurement": "collision cross section (N2)", "setting": "[1]; [M-H]-", "value": 264.5, "unit": "Å²"}]}, {"smiles": "CCCCCCCCCCC=CCC=CCC(=O)OC[C@H](CO[C@@H]1O[C@H](CO[C@H]2O[C@H](CO)[C@H](O)C(O)C2O)[C@H](O)C(O)C1O)OC(=O)CC=CCC=CCCCCCCCCCC", "note": "(stereo partly specified) [DGDG(16:1/18:3)]", "values": [{"measurement": "collision cross section (N2)", "setting": "[1]; [M+Cl]-", "value": 303.2, "unit": "Å²"}, {"measurement": "collision cross section (N2)", "setting": "[1]; [M+NH4]+", "value": 303.5, "unit": "Å²"}, {"measurement": "collision cross section (N2)", "setting": "[1]; [M+Na]+", "value": 301.1, "unit": "Å²"}, {"measurement": "collision cross section (N2)", "setting": "[1]; [M-H]-", "value": 301.4, "unit": "Å²"}]}, {"smiles": "CCCCCCCCCCCCCCC(=O)O[C@H](COC(=O)CCCCCCCCCCCC)COP(=O)(O)OC[C@@H](O)CO", "note": "[PG(28:0)]", "values": [{"measurement": "collision cross section (N2)", "setting": "[1]; [M-H]-", "value": 253.1, "unit": "Å²"}]}, {"smiles": "CC/C=C\\C/C=C\\C/C=C\\C/C=C\\C/C=C\\CCCCCC(=O)O[C@H](COC(=O)CCC/C=C\\C/C=C\\C/C=C\\C/C=C\\C/C=C\\CC)COP(=O)(O)OCCN", "note": "[PE(42:10)]", "values": [{"measurement": "collision cross section (N2)", "setting": "[2]", "value": 291, "unit": "Å²"}, {"measurement": "collision cross section (N2)", "setting": "[3]; [M+H]+", "value": 285, "unit": "Å²"}]}, {"smiles": "CCCCCC/C=C/CCCCCCCC(=O)OCC(COP(=O)([O-])OCC(O)COC(=O)C(N)CCCC[NH3+])OC(=O)CCCCCCCCCCCCCCC", "note": "(stereo unspecified) [LysPG(32:1)]", "values": [{"measurement": "collision cross section (N2)", "setting": "[1]; [M+H]+", "value": 293.5, "unit": "Å²"}]}, {"smiles": "CCCCCCCC=CCC=CCC=CCC(=O)OC[C@H](CO[C@@H]1O[C@H](CO[C@H]2O[C@H](CO)[C@H](O)C(O)C2O)[C@H](O)C(O)C1O)OC(=O)CC=CCC=CCC=CCCCCCCC", "note": "(stereo partly specified) [DGDG(16:3/18:3)]", "values": [{"measurement": "collision cross section (N2)", "setting": "[1]; [M+CH3COO]-", "value": 305.8, "unit": "Å²"}, {"measurement": "collision cross section (N2)", "setting": "[1]; [M+Cl]-", "value": 299.9, "unit": "Å²"}, {"measurement": "collision cross section (N2)", "setting": "[1]; [M+K]+", "value": 295.2, "unit": "Å²"}, {"measurement": "collision cross section (N2)", "setting": "[1]; [M+NH4]+", "value": 296.3, "unit": "Å²"}, {"measurement": "collision cross section (N2)", "setting": "[1]; [M+Na]+", "value": 294.9, "unit": "Å²"}, {"measurement": "collision cross section (N2)", "setting": "[1]; [M-H]-", "value": 296.1, "unit": "Å²"}]}, {"smiles": "CCCCC/C=C\\C/C=C\\C/C=C\\CCCCCCC(=O)O[C@H](COC(=O)CCCCCCC/C=C\\C/C=C\\CCCCC)COP(=O)(O)OCCN", "note": "[PE(38:5)]", "values": [{"measurement": "collision cross section (N2)", "setting": "[2]", "value": 287.2, "unit": "Å²"}, {"measurement": "collision cross section (N2)", "setting": "[3]; [M+H]+", "value": 276, "unit": "Å²"}, {"measurement": "collision cross section (N2)", "setting": "[3]; [M-H]-", "value": 269.5, "unit": "Å²"}, {"measurement": "collision cross section (N2)", "setting": "[4]; [M+H]+", "value": 280.1, "unit": "Å²"}, {"measurement": "collision cross section (N2)", "setting": "[4]; [M-H]-", "value": 271.2, "unit": "Å²"}]}]}
